Where a name gives a salt, the structure may show the parent alone. Read-outs that look alike come from different tables or passages of the source.
Test: Determination of solubility of Nic drug and solid dispersions
Type: physicochemical
Conditions: for solubility at 2 h: 37 °C, thermodynamic from solid
Protocol: After the drug was dissolved, an equivalent dose of the solid dispersion powder was further added, and oscillated for 2 h. The above operations were repeated until an insoluble solid occurred in the solution.

Row | Compound | solubility at 2 h (saturated citric acid solution, aqueous buffer, saturated citric acid solution, read-out: Solubility of Saturated Citric Acid Solution mg/ml (37° C.)) | solubility at 2 h (water, water, water, read-out: Solubility in Water mg/ml (37° C.)) | Solubility of Saturated Citric Acid Solution mg/ml (37° C.) (saturated citric acid solution, hydrochloride) | Solubility in Water mg/ml (37° C.) (water, hydrochloride)
1 | COC(=O)C1=C(C)NC(C)=C(C(=O)OCCN(C)Cc2ccccc2)C1c1cccc([N+](=O)[O-])c1 (stereo not drawn) [α-Form Nic, nicardipine hydrochloride] | 46 mg/mL | 7.2 mg/mL | – | –
2 | COC(=O)C1=C(C)NC(C)=C(C(=O)OCCN(C)Cc2ccccc2)C1c1cccc([N+](=O)[O-])c1 (stereo not drawn) [β-Form Nic, nicardipine hydrochloride] | – | – | 50 mg/mL | 11 mg/mL

From US20250144030A1, “OSMOTIC PUMP CONTROLLED-RELEASE TABLET OF INSOLUBLE DRUG AND PREPARATION METHOD THEREFOR” (BEIJING WEHAND-BIO PHARMACEUTICAL CO., LTD, priority 2021, published 2025)
